Data published in patent publication US20150359668A1, “LIGHT DELIVERY DEVICE AND RELATED COMPOSITIONS, METHODS AND SYSTEMS” (CALIFORNIA INSTITUTE OF TECHNOLOGY, priority 2011, published 2015).

Key:
[1] = reaction with singlet oxygen; cited from earlier work
cornea [2] = conditions: fluorescein value used for riboflavin in earlier studies; cited from earlier work
sclera [3] = conditions: subconjunctival delivery; cited from earlier work
cornea [4] = assay: drug diffusion into the cornea of intact eyes (extraction assay, diffusion model fit)
Experimental: Siena for Medical Science supplied porcine eyes from 3-4 month old swine. Eyes were stored in ocular balanced saline solution on ice until use within 48 hours post mortem. […] The epithelial cell layer was removed by scraping with a scalpel. […] The drug solution containing the eye was gently agitated using a rocker for a specified “drug contact time” (tc,cornea ranging from 0 to 4 hours). After the drug contact time, the eye was removed from the drug solution, and excess solution on the cornea was dabbed away with a Kimwipe. The eye was dissected using a scalpel blade and a pair of scissors to cut around the corneoscleral limbus to separate out the cornea. The tissue section was placed onto a trephine punch to cut out a 9.5-mm diameter corneal cross-section.
(§1) Quantitative assay of the amount of drug delivered—Experiments were performed for five drug contact times (four samples each): for the cornea, tc,cornea=0.25, 0.5, 1, 2, and 4 hrs, and for the sclera, tc,sclera=0.5, 2, 4, 7.5, and 120 hrs. Each experiment was repeated four times. For each experiment, the 9.5-mm diameter tissue cross-section obtained as described above was placed into a 50 mL centrifuge tube and immersed in 50 mL of extractant (doubled-distilled water for cornea or DPBS for sclera) then placed on a rocker to extract the drug molecules (FIG. 40). […] After a first extraction time te,1 of 8 hours, the tissue specimen was then transferred into another 50 mL of fresh extractant and the extract was retained for analysis.
(§2) The concentration of the drug in the extract was determined using fluorimetry. […] The fluorescence of each extract was measured and concentration was determined based on calibration curves prepared for each compound using a series of solutions with known concentrations. The extraction process was repeated using successively longer extraction times until there was no detectable fluorescence in the supernatant.
(§3) Porcine eyes closely resemble a sphere with diameter ˜25 mm. The cornea and sclera are the targeted tissues and both have thicknesses that are on the order of 1 mm. Since these tissue thicknesses are less than a tenth of the diameter of the eye, they are modeled as semi-infinite slabs. Each tissue is approximated as a uniform material. Fick's diffusion equation is given by
(§4) where C(z,t) is the drug concentration inside the tissue, t is the time since the exterior surface of the tissue was placed in contact with the drug solution, z is the distance into the tissue from its exterior surface, and D is the diffusion coefficient. […] For short contact times, the concentration falls to zero before the profile reaches the endothelium. For longer contact times, the boundary condition that the concentration falls to zero far into the system is still used as a first approximation (neglecting the change in material properties at the endothelium and neglects different transport processes in the aqueous or vitreous).
(§5) where area represents the cross-sectional area of the tissue sample and L is the thickness of the tissue sample. At long drug contact time, the predicted concentration changes very slowly and approaches a value governed by the partition coefficient.
(§6) with i being the individual data point and N being the total data points used for the fit. Data fitting was performed by writing a program in MATLAB software.

cornea [5] = conditions: sodium azide added to the riboflavin treatment solution; cited from earlier work
collagen gel = collagen gel photorheology: storage modulus during photo-activated cross-linking; conditions: for cross-linking rate as % of the rate without singlet oxygen quenchers: in air
posterior globe = conditions: rabbit, in vivo; cited from earlier work
[6] = physiological pH; cited from earlier work
keratocytes = conditions: human, in vivo; cited from earlier work
sclera [7] = assay: drug diffusion into the sclera of intact eyes (extraction assay, diffusion model fit)
From the text: Orbital tissues were removed with scissors to expose the sclera. […] After the contact time, the eye was removed from the drug solution, and excess solution on the sclera was dabbed away with a Kimwipe. The eye was dissected using a scalpel blade and a pair of scissors to obtain a posterior scleral section on the temporal side near the optic nerve. The tissue section was placed onto a trephine punch to cut out a 9.5-mm diameter cross-section.
as §1, §2, §3, §4, §5, §6

sclera [8] = conditions: cited from earlier work
[9] = 0.02% eosin Y or 0.1% riboflavin, 0 mW/cm^2

N[C@@H](CS)C(=O)O [Cystei e, Cysteine]
k1O2 × 10^−7 M^−1s^−1 [1]: 0.89 × 10^−7 M^−1s^−1

N[C@@H](Cc1c[nH]cn1)C(=O)O [Histidine]
k1O2 × 10^−7 M^−1s^−1 [1]: 3.2-3.4 × 10^−7 M^−1s^−1

CSCC[C@H](N)C(=O)O [Methionine]
k1O2 × 10^−7 M^−1s^−1 [1]: 1.6 × 10^−7 M^−1s^−1

N[C@@H](Cc1c[nH]c2ccccc12)C(=O)O [Tryptophan]
k1O2 × 10^−7 M^−1s^−1 [1]: 1.3-3 × 10^−7 M^−1s^−1

N[C@@H](Cc1ccc(O)cc1)C(=O)O [Tyrosine]
k1O2 × 10^−7 M^−1s^−1 [1]: 0.8 × 10^−7 M^−1s^−1

O=C1OC2(c3ccc(O)cc3Oc3cc(O)ccc32)c2ccccc21 [fluorescein]
diffusion coefficient, D (cornea [2]): 65 μm^2/s

CO[C@@]12[C@H](COC(N)=O)C3=C(C(=O)C(C)=C(N)C3=O)N1C[C@@H]1N[C@@H]12 [mitomycin-C]
fraction of drug present on the surface of sponges able to diffuse into the sclera (sclera [3]): ~5%

riboflavin-5′-monophosphate [reference compound]
diffusion coefficient without the binding effect, Dab (cornea [4]): 134 μm^2/s | drug contact time at which delivered amount levels off (cornea [4]): 2 h | drug in second extract, % of the first extract (cornea [4]): 1.6-2.5% | decrease of cross-linking efficacy (destructive tension of corneal strips) (cornea [5]): 76% | cross-linking rate as % of the rate without singlet oxygen quenchers (collagen gel; 10 mM sodium azide): 12±20% | modulus change during the last 10 minutes, no irradiation (collagen gel; [9]): 32±36 Pa | ΔG′ over the 30-minute period without irradiation (collagen gel; [9]): 72±136 Pa | modulus change during the 10 minutes after cessation of irradiation (collagen gel; 0.02% eosin Y, 6 mW/cm^2, 0.1% riboflavin, 3 mW/cm^2): 70±19 Pa | change of storage modulus ΔG′ over the 30-minute irradiation (collagen gel; 0.02% eosin Y, 6 mW/cm^2 at 530±15 nm, 0.1% riboflavin, 3 mW/cm^2 at 370±12 nm): 819±85 Pa | cross-linking rate as % of the rate without singlet oxygen quenchers (collagen gel; 20 mM ascorbic acid): −32±11% | cross-linking rate as % of the rate without singlet oxygen quenchers (collagen gel; 100 mM sodium azide): −26±23% | cross-linking rate as % of the optimal rate (0.05% riboflavin) (collagen gel; 0.12% riboflavin concentration, by interpolation): approximately 78% | cross-linking in the absence of oxygen (collagen gel; in argon): no cross-linking occurred | rate of change in storage modulus, Ġ′ (decreased by) (collagen gel; in the absence of oxygen (in argon), 30-minute irradiation): 4.8±2.3 Pa/min | rate of change in storage modulus, Ġ′ (increased by) (collagen gel; in the presence of oxygen (in air), 30-minute irradiation, 0.05% riboflavin 370 nm or 0.02% eosin Y 530 nm): 28.0±4.7 Pa/min | side-effects in the posterior globe (posterior globe): almost complete loss of the photoreceptors, the outer nuclear layer and the retinal pigment epithelium (RPE) | ionization in solution [6]: negatively ionized | anterior stromal depth in which almost all keratocytes undergo apoptosis (keratocytes): 300-350 μm | time to full recovery of the keratocyte population (keratocytes): 6-12 months | diffusion coefficient without the binding effect, Dab (sclera [7]): 41 μm^2/s | drug in 3rd extract relative to the first extract (sclera [7]): 1-3% | drug in 4th extract relative to the first extract (sclera [7]): ≤ 1% | drug in second extract, % of the first extract (sclera [7]): 3-6% | time for the concentration to level off (sclera [7]): approximately 7.5 hours

sulforhodamine
partition coefficient in the sclera (sclera [8]): 13.6
